Results reported in PubChem BioAssay (NCI).
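96-well plates; 48 h exposure; 5 concentrations. Endpoints by linear interpolation between flanking doses. Not reached: highest tested concentration assigned. TGI: total growth inhibition.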

Assays:
[1] = test system: NCI/ADR-RES ovarian; experiment: NCI anticancer screen, dose series, 48 h
[2] = test system: PC-3 prostate; experiment: NCI anticancer screen, dose series, 48 h

Row | Compound | TGI [1] [µM] | TGI [2] [µM]
1 | CC(C)(CCCCC(C)(C)NC1=NCCO1)NC1=NCCO1 | > 10 | > 10
2 | O=c1c2ccccc2nc2n1CCc1c-2[nH]c2ccccc12 | 61 | 40.9
3 | O=c1c(-c2ccccc2)c(SCCCN2CCCCC2)n(-c2ccccc2)c(=S)n1-c1ccccc1 | 43.8 | 39.4
4 | O=c1[nH]c2ccccc2c2oc3ccccc3c12 | > 100 | > 100
